Measured values published in publication PMC7827406, “Structure–Activity Relationship (SAR) Study of Spautin-1 to Entail the Discovery of Novel NEK4 Inhibitors” (International Journal of Molecular Sciences, 2021).
Read-outs that look alike come from different tables or passages of the source.

Columns and labels:
Assay in all cases: biochemical
Set-up in all cases: Eurofins KinaseProfiler full panel at Km ATP, residual kinase activity (%) relative to DMSO
JNK1α1(h) = target: T1, JNK1α1(h) (Homo sapiens, UniProt P45983)
T1 construct: gene MAPK8; isoform alpha1
T1 sequence (P45983 whole entry, canonical isoform): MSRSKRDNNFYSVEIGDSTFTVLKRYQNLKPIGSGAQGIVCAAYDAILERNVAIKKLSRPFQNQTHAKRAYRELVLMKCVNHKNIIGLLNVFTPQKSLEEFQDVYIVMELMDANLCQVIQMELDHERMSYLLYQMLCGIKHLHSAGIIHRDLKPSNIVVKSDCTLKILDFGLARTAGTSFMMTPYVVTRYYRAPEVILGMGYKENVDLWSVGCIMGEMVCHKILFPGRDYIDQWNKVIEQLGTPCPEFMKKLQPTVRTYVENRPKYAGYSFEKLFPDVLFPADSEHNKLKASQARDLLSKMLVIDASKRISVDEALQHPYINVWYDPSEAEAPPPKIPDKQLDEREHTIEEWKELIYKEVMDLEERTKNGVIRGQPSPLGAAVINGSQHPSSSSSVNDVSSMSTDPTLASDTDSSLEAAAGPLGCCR
Procedure, shortened: (§1)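 Radiometric kinase activity assays were run with ATP at Km and compounds at 10 µM, and remaining activity (%) was reported. A separate competitive binding screen measured DNA-tagged kinase displaced from immobilized active-site ligands by qPCR, giving percent kinase still bound at 10 µM compound in DMSO.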

DRAK1(h) = target: T2, DRAK1(h) (Homo sapiens, UniProt Q9UEE5)
T2 construct: gene STK17A
T2 sequence (Q9UEE5 1-414): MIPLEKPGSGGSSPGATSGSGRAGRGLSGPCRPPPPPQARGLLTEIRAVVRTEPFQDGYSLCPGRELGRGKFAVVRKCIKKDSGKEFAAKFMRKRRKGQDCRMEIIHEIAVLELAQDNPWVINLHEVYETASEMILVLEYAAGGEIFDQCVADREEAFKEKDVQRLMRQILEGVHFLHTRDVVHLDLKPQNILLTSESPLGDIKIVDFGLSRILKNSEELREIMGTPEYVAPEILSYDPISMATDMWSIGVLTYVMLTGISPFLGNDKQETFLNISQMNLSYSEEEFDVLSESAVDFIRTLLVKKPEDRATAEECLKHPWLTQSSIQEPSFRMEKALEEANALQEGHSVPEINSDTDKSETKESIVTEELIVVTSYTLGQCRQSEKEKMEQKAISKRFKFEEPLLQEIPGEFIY
Procedure, shortened: as §1

DMPK(h) = target: T3, DMPK(h) (Homo sapiens, UniProt Q09013)
T3 sequence (Q09013 1-629): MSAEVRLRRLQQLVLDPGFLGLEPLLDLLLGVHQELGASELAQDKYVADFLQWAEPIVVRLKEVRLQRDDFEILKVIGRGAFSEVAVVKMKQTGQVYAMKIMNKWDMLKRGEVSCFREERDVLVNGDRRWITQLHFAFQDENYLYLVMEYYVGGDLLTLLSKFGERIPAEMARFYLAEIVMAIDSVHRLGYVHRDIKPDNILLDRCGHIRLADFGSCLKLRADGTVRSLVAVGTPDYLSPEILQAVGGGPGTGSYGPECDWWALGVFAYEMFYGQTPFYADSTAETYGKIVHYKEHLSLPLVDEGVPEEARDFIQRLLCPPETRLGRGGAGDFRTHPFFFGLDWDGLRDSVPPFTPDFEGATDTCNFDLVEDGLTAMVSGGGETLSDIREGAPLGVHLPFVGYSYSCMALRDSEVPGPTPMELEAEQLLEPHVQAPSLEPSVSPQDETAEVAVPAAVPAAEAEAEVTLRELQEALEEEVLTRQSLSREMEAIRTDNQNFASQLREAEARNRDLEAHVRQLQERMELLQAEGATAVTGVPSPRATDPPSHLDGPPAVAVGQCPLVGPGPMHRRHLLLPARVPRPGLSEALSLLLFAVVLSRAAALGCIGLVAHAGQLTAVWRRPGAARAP
Procedure, shortened: as §1

MARK1(h) = MARK1(h) (Homo sapiens, UniProt Q9P0L2)
Sequence of MARK1(h) (Q9P0L2 whole entry): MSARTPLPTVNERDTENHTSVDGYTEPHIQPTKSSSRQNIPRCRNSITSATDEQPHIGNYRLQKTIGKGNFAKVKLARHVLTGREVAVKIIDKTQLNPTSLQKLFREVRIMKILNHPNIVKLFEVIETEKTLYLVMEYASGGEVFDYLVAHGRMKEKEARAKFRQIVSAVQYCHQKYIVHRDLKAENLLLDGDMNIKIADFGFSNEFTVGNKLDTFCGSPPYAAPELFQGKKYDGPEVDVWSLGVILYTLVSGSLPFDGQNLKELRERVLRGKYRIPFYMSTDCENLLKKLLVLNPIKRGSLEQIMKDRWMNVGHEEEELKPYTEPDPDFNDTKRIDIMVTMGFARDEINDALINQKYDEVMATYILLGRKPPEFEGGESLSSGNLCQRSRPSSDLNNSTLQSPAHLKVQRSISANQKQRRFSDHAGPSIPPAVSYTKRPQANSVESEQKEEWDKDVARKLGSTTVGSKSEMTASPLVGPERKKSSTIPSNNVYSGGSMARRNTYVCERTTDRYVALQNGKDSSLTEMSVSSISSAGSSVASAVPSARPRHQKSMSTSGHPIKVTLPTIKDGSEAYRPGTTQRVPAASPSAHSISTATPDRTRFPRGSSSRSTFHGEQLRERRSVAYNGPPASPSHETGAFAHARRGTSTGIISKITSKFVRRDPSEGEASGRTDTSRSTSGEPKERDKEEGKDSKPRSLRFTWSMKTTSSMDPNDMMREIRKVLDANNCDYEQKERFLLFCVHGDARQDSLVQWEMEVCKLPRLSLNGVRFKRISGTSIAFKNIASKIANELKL
Procedure, shortened: as §1

TAO1(h) = target: T4, TAO1(h) (Homo sapiens, UniProt Q7L7X3)
T4 construct: gene TAOK1
T4 sequence (Q7L7X3 1-1001): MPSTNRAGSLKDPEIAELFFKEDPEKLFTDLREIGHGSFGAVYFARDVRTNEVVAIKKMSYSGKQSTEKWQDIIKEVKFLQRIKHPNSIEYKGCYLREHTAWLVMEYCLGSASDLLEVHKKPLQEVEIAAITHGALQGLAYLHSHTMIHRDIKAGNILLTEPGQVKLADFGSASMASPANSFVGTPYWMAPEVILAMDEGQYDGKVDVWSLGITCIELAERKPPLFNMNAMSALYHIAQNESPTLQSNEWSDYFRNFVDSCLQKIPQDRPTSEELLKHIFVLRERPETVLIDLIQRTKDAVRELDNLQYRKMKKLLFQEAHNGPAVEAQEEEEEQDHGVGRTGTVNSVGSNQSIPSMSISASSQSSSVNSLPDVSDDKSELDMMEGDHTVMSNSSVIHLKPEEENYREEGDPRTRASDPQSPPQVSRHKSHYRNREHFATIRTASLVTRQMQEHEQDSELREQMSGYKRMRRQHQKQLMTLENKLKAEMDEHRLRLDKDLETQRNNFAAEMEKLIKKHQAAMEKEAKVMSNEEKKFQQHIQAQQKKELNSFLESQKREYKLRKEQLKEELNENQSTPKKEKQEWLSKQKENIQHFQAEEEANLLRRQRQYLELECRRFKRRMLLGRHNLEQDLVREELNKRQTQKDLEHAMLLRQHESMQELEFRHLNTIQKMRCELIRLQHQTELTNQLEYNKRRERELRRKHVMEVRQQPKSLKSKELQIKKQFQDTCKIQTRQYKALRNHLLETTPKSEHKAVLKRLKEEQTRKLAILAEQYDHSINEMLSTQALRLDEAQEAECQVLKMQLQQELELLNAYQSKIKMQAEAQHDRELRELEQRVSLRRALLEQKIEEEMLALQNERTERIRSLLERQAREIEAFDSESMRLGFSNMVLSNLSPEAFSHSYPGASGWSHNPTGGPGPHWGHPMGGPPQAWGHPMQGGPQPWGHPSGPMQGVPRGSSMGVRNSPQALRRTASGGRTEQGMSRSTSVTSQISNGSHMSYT
Procedure, shortened: as §1

Pim-1(h) = target: T5, Pim-1(h) (Homo sapiens, UniProt P11309)
T5 construct: gene PIM1
T5 sequence (P11309 whole entry): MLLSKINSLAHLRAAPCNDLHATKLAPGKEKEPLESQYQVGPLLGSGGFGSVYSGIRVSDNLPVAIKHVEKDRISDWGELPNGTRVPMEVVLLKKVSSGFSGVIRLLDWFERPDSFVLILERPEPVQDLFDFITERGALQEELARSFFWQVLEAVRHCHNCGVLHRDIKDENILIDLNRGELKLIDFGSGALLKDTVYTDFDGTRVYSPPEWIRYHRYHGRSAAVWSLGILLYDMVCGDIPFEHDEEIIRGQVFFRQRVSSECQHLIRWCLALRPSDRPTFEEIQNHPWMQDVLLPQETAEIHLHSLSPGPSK
Procedure, shortened: as §1

[1] = read-out: Residual activity (%) 5ay
[2] = read-out: Residual activity (%) Spautin-1 5aa
[3] = read-out: Residual activity (%) 5at
[4] = read-out: Residual activity (%) 5as

## COc1ccc2ncnc(Nc3cccc(F)c3)c2c1 [5ay, N-(3-Fluorophenyl)-6-Methoxy-4-Quinazolinamine]
JNK1α1(h); [1]
  remaining activity at 10 µM: 94%
DRAK1(h); [1]
  remaining activity at 10 µM: 57%
DMPK(h); [1]
  remaining activity at 10 µM: 99%
MARK1(h); [1]
  remaining activity at 10 µM: 89%
TAO1(h); [1]
  remaining activity at 10 µM: 95%
Pim-1(h); [1]
  remaining activity at 10 µM: 39%

## Fc1ccc(CNc2ncnc3ccc(F)cc23)cc1 [5aa, 6-Fluoro-N-(4-fluorobenzyl)-4-Quinazolinamine]
JNK1α1(h); [2]
  remaining activity at 10 µM: 98%
DRAK1(h); [2]
  remaining activity at 10 µM: 98%
DMPK(h); [2]
  remaining activity at 10 µM: 79%
MARK1(h); [2]
  remaining activity at 10 µM: 89%
TAO1(h); [2]
  remaining activity at 10 µM: 99%
Pim-1(h); [2]
  remaining activity at 10 µM: 66%

## Fc1ccc2ncnc(NCCc3ccc(Cl)cc3)c2c1 [5at, N-[2-(4-Chlorophenyl)Ethyl]-6-Fluoro-4-Quinazolinamine]
JNK1α1(h); [3]
  remaining activity at 10 µM: 98%
DRAK1(h); [3]
  remaining activity at 10 µM: 85%
DMPK(h); [3]
  remaining activity at 10 µM: 80%
MARK1(h); [3]
  remaining activity at 10 µM: 82%
TAO1(h); [3]
  remaining activity at 10 µM: 97%
Pim-1(h); [3]
  remaining activity at 10 µM: 70%

## Fc1ccc(CCNc2ncnc3ccc(F)cc23)cc1 [5as, 6-Fluoro-N-[2-(4-Fluorophenyl)Ethyl]-4-Quinazolinamine]
JNK1α1(h); [4]
  remaining activity at 10 µM: 83%
DRAK1(h); [4]
  remaining activity at 10 µM: 79%
DMPK(h); [4]
  remaining activity at 10 µM: 90%
MARK1(h); [4]
  remaining activity at 10 µM: 96%
TAO1(h); [4]
  remaining activity at 10 µM: 104%
Pim-1(h); [4]
  remaining activity at 10 µM: 73%
